Source: ChEMBL document CHEMBL4002623, “Synthesis and in vitro activity of dicationic indolyl diphenyl ethers as novel potent antibiotic agents against drug-resistant bacteria” (Bioorg Med Chem Lett, 2017)

Experiments:
Citrobacter freundii = test: Antibacterial activity against Citrobacter freundii ATCC 43864 by agar dilution method; format: functional
Enterococcus faecalis [1] = test: Antibacterial activity against vancomycin-sensitive Enterococcus faecalis ATCC 29212 by agar dilution method; format: functional
Serratia marcescens = test: Antibacterial activity against Serratia marcescens 41002 by agar dilution method; format: functional
Pseudomonas aeruginosa [2] = test: Antibacterial activity against Pseudomonas aeruginosa PAO1 by agar dilution method; format: functional
[3] = tested on: Staphylococcus epidermidis; test: Antibacterial activity against methicillin-sensitive Staphylococcus epidermidis ATCC 12228 by agar dilution method; format: functional
Enterococcus faecium [4] = test: Antibacterial activity against vancomycin-resistant Enterococcus faecium 05-8 by agar dilution method; format: functional
Enterococcus faecalis [5] = test: Antibacterial activity against vancomycin-sensitive Enterococcus faecalis 09-8 by agar dilution method; format: functional
Enterococcus faecalis [6] = test: Antibacterial activity against vancomycin-resistant Enterococcus faecalis 09-9 by agar dilution method; format: functional
Klebsiella pneumoniae [7] = test: Antibacterial activity against extended-spectrum beta-lactamase-negative Klebsiella pneumoniae 09-8 by agar dilution method; format: functional
Enterococcus faecium [8] = test: Antibacterial activity against vancomycin-resistant Enterococcus faecium ATCC 700221 by agar dilution method; format: functional
Klebsiella pneumoniae [9] = test: Antibacterial activity against extended-spectrum beta-lactamase-positive Klebsiella pneumoniae ATCC 700603 by agar dilution method; format: functional
Staphylococcus aureus [10] = test: Antibacterial activity against methicillin-resistant Staphylococcus aureus 09-13 by agar dilution method; format: functional
[11] = tested on: Staphylococcus epidermidis; test: Antibacterial activity against methicillin-sensitive Staphylococcus epidermidis 09-9 by agar dilution method; format: functional
Escherichia coli [12] = test: Antibacterial activity against extended-spectrum beta-lactamase-negative Escherichia coli 09-20 by agar dilution method; format: functional
Proteus mirabilis = test: Antibacterial activity against Proteus mirabilis 09-1 by agar dilution method; format: functional
Salmonella typhi = test: Antibacterial activity against Salmonella typhi H901 by agar dilution method; format: functional, Salmonella enterica subsp. enterica serovar Typhi; conditions: Salmonella enterica
Enterococcus faecium [13] = test: Antibacterial activity against vancomycin-sensitive Enterococcus faecium 09-10 by agar dilution method; format: functional
Klebsiella pneumoniae [14] = test: Antibacterial activity against extended-spectrum beta-lactamase-negative Klebsiella pneumoniae 7 by agar dilution method; format: functional
Pseudomonas aeruginosa [15] = test: Antibacterial activity against Pseudomonas aeruginosa ATCC 27853 by agar dilution method; format: functional
Klebsiella pneumoniae [16] = test: Antibacterial activity against extended-spectrum beta-lactamase-positive Klebsiella pneumoniae 09-25 by agar dilution method; format: functional
[17] = Cytotoxicity against HEK293T cells after 48 hrs by MTS assay; format: cell-based, HEK-293T; conditions: human
[18] = tested on: Acinetobacter calcoaceticus; test: Antibacterial activity against Acinetobacter calcoaceticus ATCC 19606 by agar dilution method; format: functional
Escherichia coli [19] = test: Antibacterial activity against extended-spectrum beta-lactamase-negative Escherichia coli ATCC 25922 by agar dilution method; format: functional
Klebsiella aerogenes = test: Antibacterial activity against Enterobacter aerogenes 45102 by agar dilution method; format: functional
Escherichia coli [20] = test: Antibacterial activity against extended-spectrum beta-lactamase-negative Escherichia coli 1515 by agar dilution method; format: functional
Klebsiella pneumoniae [21] = test: Antibacterial activity against Klebsiella pneumoniae ATCC BAA-2146 expressing NDM-1 by agar dilution method; format: functional
Enterobacter cloacae = test: Antibacterial activity against Enterobacter cloacae 45301 by agar dilution method; format: functional
Staphylococcus aureus [22] = test: Antibacterial activity against methicillin-resistant Staphylococcus aureus ATCC 33591 by agar dilution method; format: functional
Escherichia coli [23] = test: Antibacterial activity against extended-spectrum beta-lactamase-positive Escherichia coli 09-1 by agar dilution method; format: functional
Providencia rettgeri = test: Antibacterial activity against Providencia rettgeri ATCC 31052 by agar dilution method; format: functional
Enterococcus faecalis [24] = test: Antibacterial activity against vancomycin-resistant Enterococcus faecalis ATCC 51299 by agar dilution method; format: functional
[25] = tested on: Staphylococcus epidermidis; test: Antibacterial activity against methicillin-resistant Staphylococcus epidermidis 09-3 by agar dilution method; format: functional
Morganella morganii = test: Antibacterial activity against Morganella morganii ATCC 25830 by agar dilution method; format: functional
Staphylococcus aureus [26] = test: Antibacterial activity against methicillin-sensitive Staphylococcus aureus 15 by agar dilution method; format: functional
Staphylococcus aureus [27] = test: Antibacterial activity against methicillin-sensitive Staphylococcus aureus ATCC 29213 by agar dilution method; format: functional
Pseudomonas aeruginosa [28] = test: Antibacterial activity against Pseudomonas aeruginosa 09-14 by agar dilution method; format: functional
Proteus vulgaris = test: Antibacterial activity against Proteus vulgaris ATCC 29905 by agar dilution method; format: functional
Staphylococcus aureus [29] = test: Antibacterial activity against methicillin-sensitive Staphylococcus aureus 09-6 by agar dilution method; format: functional

CC1CCN(C(=N)c2ccc3cc(-c4ccc(Oc5ccc(-c6cc7ccc(C(=N)N8CCC(C)CC8)cc7[nH]6)cc5)cc4)[nH]c3c2)CC1
3.2 µg/mL: CC50 at 48 h [17]
8 µg/mL: MIC [11] | MIC [25]
> 128 µg/mL: MIC (Citrobacter freundii) | MIC (Serratia marcescens) | MIC (Pseudomonas aeruginosa [2]) | MIC (Klebsiella pneumoniae [7]) | MIC (Klebsiella pneumoniae [9]) | MIC (Escherichia coli [12]) | MIC (Proteus mirabilis) | MIC (Salmonella typhi) | MIC (Klebsiella pneumoniae [14]) | MIC (Pseudomonas aeruginosa [15]) | MIC (Klebsiella pneumoniae [16]) | MIC [18] | MIC (Escherichia coli [19]) | MIC (Klebsiella aerogenes) | MIC (Escherichia coli [20]) | MIC (Klebsiella pneumoniae [21]) | MIC (Enterobacter cloacae) | MIC (Escherichia coli [23]) | MIC (Providencia rettgeri) | MIC (Morganella morganii) | MIC (Pseudomonas aeruginosa [28]) | MIC (Proteus vulgaris)
4 µg/mL: MIC [3]
128 µg/mL: MIC (Enterococcus faecium [4]) | MIC (Enterococcus faecalis [5]) | MIC (Enterococcus faecalis [6]) | MIC (Enterococcus faecium [13]) | MIC (Enterococcus faecalis [24])
16 µg/mL: MIC (Enterococcus faecium [8]) | MIC (Staphylococcus aureus [10]) | MIC (Staphylococcus aureus [22]) | MIC (Staphylococcus aureus [26]) | MIC (Staphylococcus aureus [27]) | MIC (Staphylococcus aureus [29])
64 µg/mL: MIC (Enterococcus faecalis [1])

CC(C)NC(=N)c1ccc2cc(-c3ccc(Oc4ccc(-c5cc6ccc(C(=N)NC(C)C)cc6[nH]5)cc4)cc3)[nH]c2c1
7.3 µg/mL: CC50 at 48 h [17]
32 µg/mL: MIC (Escherichia coli [12]) | MIC (Salmonella typhi) | MIC (Escherichia coli [20]) | MIC (Escherichia coli [23])
64 µg/mL: MIC (Citrobacter freundii) | MIC (Serratia marcescens) | MIC (Klebsiella pneumoniae [7]) | MIC (Klebsiella pneumoniae [9]) | MIC (Proteus mirabilis) | MIC (Klebsiella pneumoniae [14]) | MIC (Pseudomonas aeruginosa [15]) | MIC (Klebsiella pneumoniae [16]) | MIC (Klebsiella aerogenes) | MIC (Klebsiella pneumoniae [21]) | MIC (Enterobacter cloacae) | MIC (Providencia rettgeri) | MIC (Pseudomonas aeruginosa [28]) | MIC (Proteus vulgaris)
1 µg/mL: MIC (Enterococcus faecalis [1]) | MIC [3] | MIC (Enterococcus faecium [4]) | MIC (Enterococcus faecalis [5]) | MIC (Enterococcus faecium [8]) | MIC (Staphylococcus aureus [10]) | MIC [11] | MIC (Staphylococcus aureus [22]) | MIC [25] | MIC (Staphylococcus aureus [26]) | MIC (Staphylococcus aureus [27]) | MIC (Staphylococcus aureus [29])
2 µg/mL: MIC (Enterococcus faecalis [6]) | MIC (Enterococcus faecium [13]) | MIC (Enterococcus faecalis [24])
128 µg/mL: MIC [18]
> 128 µg/mL: MIC (Pseudomonas aeruginosa [2])
16 µg/mL: MIC (Escherichia coli [19]) | MIC (Morganella morganii)
